We go through 47 compounds from publication PMC5733478, “A Non-imaging High Throughput Approach to Chemical Library Screening at the Unmodified Adenosine-A3 Receptor in Living Cells” (Frontiers in Pharmacology, 2017).

In this experiment the target is T1, human A3AR (Homo sapiens, UniProt P0DMS8).
T1 construct: expressed in transfected cells
T1 sequence (P0DMS8 1-318): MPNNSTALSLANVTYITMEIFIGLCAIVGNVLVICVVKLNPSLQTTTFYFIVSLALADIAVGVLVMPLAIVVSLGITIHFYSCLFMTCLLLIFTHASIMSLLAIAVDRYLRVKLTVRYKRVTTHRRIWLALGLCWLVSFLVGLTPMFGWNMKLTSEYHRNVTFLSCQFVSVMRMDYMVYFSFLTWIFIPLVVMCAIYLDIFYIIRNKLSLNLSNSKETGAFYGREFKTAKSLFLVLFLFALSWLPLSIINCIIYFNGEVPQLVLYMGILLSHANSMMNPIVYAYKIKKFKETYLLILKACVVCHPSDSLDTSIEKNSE
Kind of experiment: LOPAC library primary screen: single concentration (10 μM) inhibition of 25 nM CA200645 binding, PHERAstar FS.

The mark [1] stands for this setting: compounds tested at 10 µM, % of control wells (1% DMSO and 25 nM CA200645), whole live cells expressing the A3AR, mean ± SD, three experiments in duplicate.
[2] abbreviates: % of control wells (1% DMSO and 25 nM CA200645), compounds at 10 µM, whole live cells expressing the A3AR, mean ± SD, three experiments in duplicate.

Where a name gives a salt, the structure may show the parent alone. Read-outs that look alike come from different tables or passages of the source.

Take `COc1ccc(CNC(=O)/C=C/c2ccc3[nH]cc(CCN(C)C)c3c2)cc1` [GR 46611]: the “% 25 nM CA200645 binding” value was found to be 100.9 ± 13.0%.

As for `Cl.N=C(N)c1ccc(CS(=O)(=O)F)cc1`, the “% 25 nM CA200645 binding” value is on record as 98.9 ± 8.1%.

Take `Cl.O=C(O)C1CCCN(CCC=C(c2ccccc2)c2ccccc2)C1` (stereo not drawn) [SKF 89976A hydrochloride]: the “% 25 nM CA200645 binding” value (compounds tested at 10 µM, % of control wells (1% DMSO and 25 nM CA200645), […], mean ± SD, three experiments in duplicate) turned out to be 95.9 ± 25.1%.

For the compound `O=C1CC2(CCCC2)CC(=O)N1CCCCN1CCN(c2ncccn2)CC1` [Buspirone hydrochloride], the “% 25 nM CA200645 binding” value was found to be 102.9 ± 6.0%.

For the compound `CNCCc1ccc(O)c(O)c1.Cl` [N-Methyldopamine hydrochloride], the “% 25 nM CA200645 binding” value is listed as 96.1 ± 15.9%.

As for `CC(C)(NS(=O)(=O)c1ccc(Oc2ccc(F)cc2)cc1)C(=O)NO` [CP-471474], the “% 25 nM CA200645 binding” value was 98.7 ± 17.5%.

For `CCCCCCCCCC(=O)NC(CN1CCOCC1)[C@H](O)c1ccccc1.Cl` (mixture of isomers), the “% 25 nM CA200645 binding” value was 98.6 ± 11.0%.

Regarding `C[C@H](N[C@@H](CCc1ccccc1)C(=O)O)C(=O)N1CCC[C@H]1C(=O)O.O.O` [Enalaprilat dihydrate], the “% 25 nM CA200645 binding” value is 95.6 ± 2.1%.

Turning to `O=c1[nH]c2ccccc2n1C1CCN(CCCC(c2ccc(F)cc2)c2ccc(F)cc2)CC1` [Pimozide], the “% 25 nM CA200645 binding” value was found to be 78.2 ± 10.9%.

As to `COc1ccc2c(c[n+](C)c3c4cc5c(cc4ccc23)OCO5)c1OC` [Chelerythrine chloride], the “% 25 nM CA200645 binding” value is listed as 73.9 ± 3.7%.

In the case of `CN1CCN(CCCN2c3ccccc3Sc3ccc(C(F)(F)F)cc32)CC1` [Trifluoperazine dihydrochloride], the “% 25 nM CA200645 binding” value (% of control wells (1% DMSO and 25 nM CA200645), compounds at 10 µM, […], mean ± SD, three experiments in duplicate) is recorded as 97.1 ± 25.1%.

For the compound `CC(C)Cn1c(=O)n(C)c(=O)c2[nH]cnc21` [3-Isobutyl-1-methylxanthine], the “% 25 nM CA200645 binding” value is 98.0 ± 7.1%.

Regarding `CNC[C@H](O)c1cccc(O)c1` [Phenylephrine hydrochloride], the “% 25 nM CA200645 binding” value was determined as 102.2 ± 12.7%.

For the compound `CC(=O)OC[C@H]1O[C@@H]([S-])[C@H](OC(C)=O)[C@@H](OC(C)=O)[C@@H]1OC(C)=O.CCP(CC)CC.[Au+]` [Auranofin], the “% 25 nM CA200645 binding” value amounted to 82.1 ± 31.0%.

For the compound `CC(C)NC(C)Cc1ccc(I)cc1` (stereo not drawn) [Iofetamine hydrochloride], the “% 25 nM CA200645 binding” value is 100.8 ± 7.1%.

In the case of `Cc1[nH]c(=O)c(C#N)cc1-c1ccc2nccn2c1.Cl` [Olprinone hydrochloride], the “% 25 nM CA200645 binding” value came to 100.7 ± 4.5%.

Regarding `O=C1NC(=O)/C(=C\c2ccc3nccnc3c2)S1` [AS605240], the “% 25 nM CA200645 binding” value stood at 83.4 ± 13.4%.

On to `C[C@]12C=CC(=O)C=C1CC[C@H]1[C@@H]3C[C@@H](O)[C@](O)(C(=O)CO)[C@@]3(C)C[C@H](O)[C@@]12F` [Triamcinolone], for which the “% 25 nM CA200645 binding” value was determined as 95.9 ± 21.3%.

Consider `CN1C2CCC1CC(OC(=O)c1c[nH]c3ccccc13)C2.Cl` (stereo not drawn), for which the “% 25 nM CA200645 binding” value was 109.6 ± 9.2%.

For the compound `NC(CO)(CO)CO.O=C(c1ccccc1)c1ccc2n1CCC2C(=O)O` (stereo not drawn) [Ketorolac tris salt], the “% 25 nM CA200645 binding” value worked out at 93.7 ± 13.0%.

Regarding `COc1ccccc1CN[C@@H]1CCCN[C@@H]1c1ccccc1.Cl.Cl.O` [CP-100263 dihydrochloride hydrate], the “% 25 nM CA200645 binding” value is 98.5 ± 6.9%.

For `Br.CN1Cc2sccc2C(c2ccc(O)c(O)c2)C1` (stereo not drawn) [SKF-89145 hydrobromide], the “% 25 nM CA200645 binding” value is reported as 97.3 ± 9.6%.

As to `Br.NC1CCc2cc(O)c(O)cc2C1` (stereo not drawn) [6,7-ADTN hydrobromide], the “% 25 nM CA200645 binding” value is reported as 100.4 ± 8.1%.

On to `CP(=O)(O)C1=CCNCC1` [TPMPA], for which the “% 25 nM CA200645 binding” value came out at 99.7 ± 3.7%.

As for `C#CCN(C)CCCOc1ccc(Cl)cc1Cl` [Clorgyline hydrochloride], the “% 25 nM CA200645 binding” value under setting [1] is recorded as 96.0 ± 4.2%.

`C=CCN1CC[C@]23CCCC[C@H]2[C@H]1Cc1ccc(O)cc13` [Levallorphan tartrate]: the “% 25 nM CA200645 binding” value amounted to 105.9 ± 7.3%.

In the case of `CC(NC(C)(C)C)C(=O)c1cccc(Cl)c1` (stereo not drawn) [Bupropion hydrochloride], the “% 25 nM CA200645 binding” value is recorded as 98.9 ± 4.9%.

Turning to `c1ccc2cc(-c3ncc[nH]3)ccc2c1` [Benazoline oxalate], the “% 25 nM CA200645 binding” value is reported as 98.8 ± 14.3%.

As to `C[N+]1(C)[C@@H]2CC(OC(=O)[C@H](CO)c3ccccc3)C[C@H]1[C@@H]1O[C@@H]12.O=[N+]([O-])[O-]` (single isomer, unassigned; (-)) [(-)-Scopolamine methyl nitrate], the “% 25 nM CA200645 binding” value was 89.5 ± 24.4%.

With `CC(/C=C/c1cccc(Oc2ccc(F)cc2)c1)N(O)C(N)=O` (stereo not drawn) [BWB70C], the “% 25 nM CA200645 binding” value came out at 92.4 ± 13.0%.

On to `CNC(=O)[C@H]1O[C@@H](n2cnc3c(NCc4ccc(N)cc4)ncnc32)[C@H](O)[C@@H]1O` [AB-MECA, reference compound], for which the “% 25 nM CA200645 binding” value worked out at 48.5 ± 9.1%. Further, the “% Total CA200645 binding” value (% of 25 nM CA200645 binding in the presence of 10 μM compound, LOPAC full screen, A3AR CHO cells) is recorded as 49.5 ± 5.8%.

As to `CCCN1CCOC2c3cc(O)ccc3OCC21.Cl` (racemic) [(±)-PD 128,907 hydrochloride], the “% 25 nM CA200645 binding” value is 103.2 ± 2.1%.

For the compound `OC[C@H]1OC(n2cnc3ccccc32)[C@H](O)[C@@H]1O` (stereo partly drawn) [D-ribofuranosylbenzimidazole], the “% 25 nM CA200645 binding” value came out at 98.4 ± 15.0%.

`N.N.N.N.N.N.N.N.N.N.N.N.N.N.[Cl-].[Cl-].[Cl-].[Cl-].[Cl-].[Cl-].[O-2].[O-2].[Ru+3].[Ru+3].[Ru+4]` [Ruthenium red]: the “% 25 nM CA200645 binding” value worked out at 95.4 ± 2.3%.

For the compound `C=CC(N)CCC(=O)O` (racemic) [(±)-gamma-Vinyl GABA], the “% 25 nM CA200645 binding” value is listed as 96.9 ± 7.5%.

`Oc1ccc(C2CNCCc3c2cc(O)c(O)c3Cl)cc1` (stereo not drawn) [Fenoldopam bromide]: the “% 25 nM CA200645 binding” value was determined as 90.6 ± 5.5%.

For `CCN(c1nc(N)c(C(=O)NC(=N)N)nc1Cl)C(C)C` [5-(N-Ethyl-N-isopropyl)amiloride], the “% 25 nM CA200645 binding” value is recorded as 94.1 ± 7.3%.

With `NCCCCNCCCN` [Spermidine trihydrochloride], the “% 25 nM CA200645 binding” value was determined as 102.2 ± 19.0%.

Regarding `CN1C[C@H](CNC(=O)OCc2ccccc2)C[C@@H]2c3cccc4c3c(cn4C)C[C@H]21` [Metergoline], the “% 25 nM CA200645 binding” value was 94.1 ± 8.5%.

Regarding `NCCc1c[nH]c2ccccc12` [Tryptamine hydrochloride], the “% 25 nM CA200645 binding” value is listed as 98.8 ± 5.7%.

In the case of `COc1cc2c(cc1OC)-c1c/c(=N\c3c(C)cc(C)cc3C)n(C)c(=O)n1CC2` [Trequinsin hydrochloride], under setting [2], the “% 25 nM CA200645 binding” value is 88.3 ± 40.0%.

`[N-]=[N+]=Nc1ccc(C(=O)CSC[C@H](NC(=O)CC[C@H](N)C(=O)O)C(=O)NCC(=O)O)cc1` [S-(p-Azidophenacyl)glutathione]: the “% 25 nM CA200645 binding” value stood at 82.4 ± 8.6%.

Turning to `CCn1c(=O)[nH]c2cc(Cl)c(Cl)cc21` [DCEBIO], the “% 25 nM CA200645 binding” value was 87.8 ± 8.9%.

Consider `CC1COc2c(N3CCN(C)CC3)c(F)cc3c(=O)c(C(=O)O)cn1c23` (stereo not drawn) [Ofloxacin], for which the “% 25 nM CA200645 binding” value was 93.4 ± 20.0%.

On to `O=C1N(c2ccccc2)c2ccccc2C1(Cc1ccncc1)Cc1ccncc1` [Linopirdine], for which the “% 25 nM CA200645 binding” value under setting [1] was determined as 105.3 ± 3.6%.

Regarding `O=C(O)CNC(=O)C(CS)Cc1ccccc1` (racemic) [DL-Thiorphan], the “% 25 nM CA200645 binding” value under setting [2] was 100.0 ± 12.5%.

In the case of `c1ccc2c(c1)[I+]c1ccccc1-2` [Diphenyleneiodonium chloride], the “% 25 nM CA200645 binding” value worked out at 92.7 ± 5.6%.
